# Test: Determination of log P values by HPLC (reversed-phase C18)
# Type: physicochemical
# Settings: HPLC, reversed-phase C18, 55° C.; final compounds table
# Procedure: 1) Description of Method for Determination of the Log P Values ([…]) The log P values given in the table were determined in accordance with EEC Directive 79/831 Annex V.A8 by HPLC (High Performance Liquid Chromatography) using a reversed-phase column (C 18). Temperature: 55° C. […] Gradient: from 10% eluent A/90% eluent B to 95% eluent A/5% eluent B in 4.25 min. Calibration was effected with unbranched alkan-2-ones (having 3 to 16 carbon atoms) with known log P values (log P values determined on the basis of the retention times by linear interpolation between two successive alkanones). The lambda max values were determined in the maxima of the chromatographic signals using the UV spectra from 200 nm to 400 nm.
row,Compound,log P neutral
1,CCc1ccccc1C(=O)Nc1ncn(-c2c(F)c(F)c(F)c(F)c2F)n1 [Compound I-1-68],2.61
2,O=C(Nc1ncn(-c2cc(Cl)ccc2Cl)n1)c1ccccc1C(F)(F)F [Compound I-1-54],2.55
3,COc1cccc(C)c1-n1cnc(NC(=O)c2ccccc2C(F)(F)F)n1 [Compound I-1-49],2.15
4,COc1cccc(C)c1-n1cnc(NC(=O)c2ccccc2Cl)n1 [Compound I-1-50],1.95
5,Cc1cccc(F)c1-n1cnc(NC(=O)c2ccccc2C(F)(F)F)n1 [Compound I-1-37],2.19
6,Cc1cccc(F)c1-n1cnc(NC(=O)c2ccccc2Cl)n1 [Compound I-1-38],1.99
7,O=C(Nc1ncn(-c2ccccc2F)n1)c1ccccc1Cl [Compound I-1-1],1.88
8,CCc1ccccc1C(=O)Nc1ncn(-c2ccccc2Br)n1 [Compound I-1-73],2.34
9,O=C(Nc1ncn(-c2c(F)cccc2I)n1)c1ccccc1Cl [Compound I-1-84],2.02
10,O=C(Nc1ncn(-c2cccc(Cl)c2Cl)n1)c1ccccc1C(F)(F)F [Compound I-1-51],2.49
11,CCc1cccc(Cl)c1-n1cnc(NC(=O)c2ccccc2Cl)n1 [Compound I-1-43],2.36
12,Cc1cccc(F)c1-n1cnc(NC(=O)c2ccccc2I)n1 [Compound I-1-39],2.13
13,O=C(Nc1ncn(-c2c(F)c(F)c(F)c(F)c2F)n1)c1ccccc1Cl [Compound I-1-66],2.28
14,O=C(Nc1ncn(-c2ccc(Cl)cc2Cl)n1)c1ccccc1C(F)(F)F [Compound I-1-53],2.58
15,O=C(Nc1ncn(-c2ccccc2C(F)(F)F)n1)c1ccccc1Cl [Compound I-1-7],2.06
16,Cc1cccc(C)c1-n1cnc(NC(=O)c2ccccc2Cl)n1 [Compound I-1-47],2.04
17,Cc1cc(C)c(-n2cnc(NC(=O)c3ccccc3C(F)(F)F)n2)cc1SCC(F)(F)F [Compound I-1-98],3.21
18,CCc1ccccc1C(=O)Nc1ncn(-c2c(Br)cccc2Br)n1 [Compound I-1-81],2.45
19,CCc1ccccc1C(=O)Nc1ncn(-c2ccccc2I)n1 [Compound I-1-78],2.31
20,O=C(Nc1ncn(-c2c(F)cccc2Cl)n1)c1ccccc1OC(F)(F)F [Compound I-1-34],2.30
21,O=C(Nc1ncn(-c2ccccc2I)n1)c1ccccc1I [Compound I-1-77],2.15
22,Cc1cccc(Cl)c1-n1cnc(NC(=O)c2ccccc2Cl)n1 [Compound I-1-41],2.04
23,O=C(Nc1ncn(-c2cc(Cl)ccc2Cl)n1)c1ccccc1Cl [Compound I-1-55],2.34
24,O=C(Nc1ncn(-c2c(F)cccc2Cl)n1)c1ccccc1Cl [Compound I-1-36],1.83
25,O=C(Nc1ncn(-c2ccccc2OC(F)(F)F)n1)c1ccccc1Cl [Compound I-1-9],2.32
26,Cc1cccc(C)c1-n1cnc(NC(=O)c2ccccc2C(F)(F)F)n1 [Compound I-1-48],2.26

# The remaining lines, values ahead:
row,log P neutral,Compound
1,1.24,O=C(Nc1ncn(-c2c(F)cccc2F)n1)c1cccnc1Cl [Compound I-1-23]
2,1.90,O=C(Nc1ncn(-c2ccccc2Cl)n1)c1c(F)cccc1F [Compound I-1-6]
3,1.91,COc1ccccc1C(=O)Nc1ncn(-c2c(F)cccc2F)n1 [Compound I-1-16]
4,1.92,O=C(Nc1ncn(-c2c(F)cccc2F)n1)c1ccsc1I [Compound I-1-94]

# Same assay, conditions: N-[1-aryl-1H-1,2,4-triazol-3-yl]benzamides, formula (1-9)
row,Compound,logP (neutral)
1,O=C(Nc1ncn(-c2ccccc2C(F)(F)F)n1)c1ccccc1 [1-9 R1=CF3 R2m=—],1.91
2,O=C(Nc1ncn(-c2ccccc2Cl)n1)c1ccccc1 [1-9 R1=Cl R2m=—],1.75
3,"O=C(Nc1ncn(-c2c(F)c(F)c(F)c(F)c2F)n1)c1ccccc1 [1-9 R1=F R2m=3,4,5,6-F4]",2.11
4,O=C(Nc1ncn(-c2c(F)cccc2Cl)n1)c1ccccc1 [1-9 R1=Cl R2m=6-F],1.75
5,O=C(Nc1ncn(-c2cc(Cl)ccc2Cl)n1)c1ccccc1 [1-9 R1=Cl R2m=5-Cl],2.17
6,O=C(Nc1ncn(-c2c(Br)cc(F)cc2Br)n1)c1ccccc1 [1-9 R1=Br R2m=6-Br-4-F],2.14
7,CCc1cccc(Cl)c1-n1cnc(NC(=O)c2ccccc2)n1 [1-9 R1=Cl R2m=6-C2H5],2.2
8,Cc1cccc(F)c1-n1cnc(NC(=O)c2ccccc2)n1 [1-9 R1=F R2m=6-CH3],1.89
9,O=C(Nc1ncn(-c2ccccc2I)n1)c1ccccc1 [1-9 R1=I R2m=—],1.87
10,O=C(Nc1ncn(-c2c(F)cccc2I)n1)c1ccccc1 [1-9 R1=F R2m=6-I],1.79
11,O=C(Nc1ncn(-c2cccc(Cl)c2Cl)n1)c1ccccc1 [1-9 R1=Cl R2m=3-Cl],2.11
12,O=C(Nc1ncn(-c2ccccc2F)n1)c1ccccc1 [1-9 R1=F R2m=—],1.69
13,O=C(Nc1ncn(-c2ccc(Cl)cc2Cl)n1)c1ccccc1 [1-9 R1=Cl R2m=4-Cl],2.18

# Now from value to molecule:
row,logP (neutral),Compound
1,1.73,"O=C(Nc1ncn(-c2c(F)ccc(F)c2F)n1)c1ccccc1 [1-9 R1=F R2m=3,6-F2]"
2,1.71,"O=C(Nc1ncn(-c2c(F)cc(F)cc2F)n1)c1ccccc1 [1-9 R1=F R2m=4,6-F2]"

# Same assay, conditions: compounds of formula (IIa-1), R3 hydrogen
row,Compound,logP (neutral)
1,Nc1ncn(-c2ccccc2Cl)n1 [IIa-1 R1=Cl R2m=—],0.96
2,Cc1cccc(F)c1-n1cnc(N)n1 [IIa-1 R1=F R2m=6-CH3],1.03
3,"Nc1ncn(-c2c(F)cc(F)cc2F)n1 [IIa-1 R1=F R2m=4,6-F2]",0.82
4,Nc1ncn(-c2c(F)cccc2Cl)n1 [IIa-1 R1=Cl R2m=6-F],0.86
5,Nc1ncn(-c2ccc(Cl)cc2Cl)n1 [IIa-1 R1=Cl R2m=4-Cl],1.48
6,Nc1ncn(-c2ccccc2Br)n1 [IIa-1 R1=Br R2m=—],1.03
7,Nc1ncn(-c2ccccc2C(F)(F)F)n1 [IIa-1 R1=CF3 R2m=—],1.16
8,Nc1ncn(-c2c(Br)cc(F)cc2Br)n1 [IIa-1 R1=Br R2m=6-Br-4-F],1.35
9,COc1cccc(C)c1-n1cnc(N)n1 [IIa-1 R1=CH3 R2m=6-OCH3],0.98
10,Nc1ncn(-c2ccccc2OC(F)(F)F)n1 [IIa-1 R1=OCF3 R2m=—],1.44
11,Nc1ncn(-c2ccccc2I)n1 [IIa-1 R1=I R2m=—],1.13
12,"Nc1ncn(-c2c(F)ccc(F)c2F)n1 [IIa-1 R1=F R2m=3,6-F2-phenyl]",0.84
13,CCc1cccc(Cl)c1-n1cnc(N)n1 [IIa-1 R1=Cl R2m=6-C2H5],1.12
14,Cc1cccc(Cl)c1-n1cnc(N)n1 [IIa-1 R1=Cl R2m=6-CH3],1.12

# Same assay, conditions: reversed-phase C18 HPLC column, pH 3.4; HPLC-MS, preparation examples; read-out: log P
row,Compound,chromatographic logP
1,"COc1ccccc1-n1nnc(NC(=O)c2ccccc2C(F)(F)F)n1 [Compound I-2-1, N-[2-(2-Methoxyphenyl)-2H-tetrazol-5-yl]-2-(trifluoromethyl)benzamide]",2.19
2,O=C(Nc1nn[nH]n1)c1ccccc1C(F)(F)F [N-(2H-Tetrazol-5-yl)-2-(trifluoromethyl)benzamide],1.17
3,"Nc1ncn(-c2ncc(F)cc2F)n1 [1-(3,5-Difluoropyridin-2-yl)-1H-1,2,4-triazol-3-amine]",0.3

# Same assay, conditions: reversed-phase C18 HPLC column; HPLC, reversed-phase C18, 55° C.; final compounds table; read-out: log P neutral
row,Compound,chromatographic logP
1,"COc1ccccc1-n1nnc(NC(=O)c2ccccc2C(F)(F)F)n1 [Compound I-2-1, N-[2-(2-Methoxyphenyl)-2H-tetrazol-5-yl]-2-(trifluoromethyl)benzamide]",2.19

# Same assay, conditions: reversed-phase C18 HPLC column; HPLC-MS, preparation examples; read-out: log P (neutral)
row,Compound,chromatographic logP
1,CO/C(=N\C#N)c1ccccc1 [Methyl N-cyanobenzenecarboximidoate],1.83
2,"O=C(Nc1ncn(-c2c(F)cccc2Br)n1)c1ccccc1 [N-[1-(2-Bromo-6-fluorophenyl)-1H-1,2,4-triazol-3-yl]benzamide]",1.79
3,"CCO/C=N/c1noc(-c2ccccc2)n1 [Ethyl [5-phenyl-1,2,4-oxadiazol-3-yl]imidoformate]",2.87

# Results, then the molecule that gave them:
row,chromatographic logP,Compound
1,1.59,"O=C(Nc1ncn(-c2c(F)cccc2F)n1)c1ccccc1 [N-[1-(2,6-Difluorophenyl)-1H-1,2,4-triazol-3-yl]benzamide]"
2,0.61,"Nc1ncn(-c2c(F)cccc2F)n1 [1-(2,6-Difluorophenyl)-1H-1,2,4-triazol-3-amine]"
3,1.36,"O=C(Nc1ncn(-c2ncc(F)cc2F)n1)c1ccccc1 [N-[1-(3,5-Difluoropyridin-2-yl)-1H-1,2,4-triazol-3-yl]benzamide]"
4,1.09,"Nc1ncn(-c2c(F)cccc2C(F)(F)F)n1 [1-[2-Fluoro-6-(trifluoromethyl)phenyl]-1H-1,2,4-triazol-3-amine]"

# Reference: patent US9920017B2, “Heterocyclic compounds as pesticides” (BAYER CROPSCIENCE AKTIENGESELLSCHAFT, priority 2014, dated 2018)
